Test results: PubChem BioAssay (NCI)
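GI50: concentration for 50% inhibition of growth. Definition used: TGI = concentration required for complete inhibition of growth.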

Experiments:
Experiment in all cases: DTP human tumour cell line panel, 384-well format
[1] = tested on: CCRF-CEM leukemia
[2] = tested on: MCF7 breast
[3] = tested on: SK-MEL-28 melanoma
[4] = tested on: U251 glioblastoma
[5] = tested on: 786-0 renal
[6] = tested on: HL-60(TB) leukemia
[7] = tested on: EKVX NSCLC
[8] = tested on: MALME-3M melanoma
[9] = tested on: DU-145 prostate
[10] = tested on: SK-MEL-2 melanoma
[11] = tested on: SF-268 CNS
[12] = tested on: COLO 205 colon
[13] = tested on: SR leukemia
[14] = tested on: SN12C renal
[15] = tested on: OVCAR-5 ovarian
[16] = tested on: RPMI-8226 leukemia
[17] = tested on: PC-3 prostate
[18] = tested on: NCI-H460 NSCLC
[19] = tested on: T-47D breast
[20] = tested on: SK-OV-3 ovarian
[21] = tested on: MDA-MB-231 breast
[22] = tested on: SW-620 colon
[23] = tested on: NCI-H23 lung
[24] = tested on: IGROV1 ovarian
[25] = tested on: SNB-19 CNS
[26] = tested on: HS 578T breast
[27] = tested on: UACC-62 melanoma
[28] = tested on: OVCAR-8 ovarian
[29] = tested on: BT-549 breast
[30] = tested on: NCI/ADR-RES ovarian
[31] = tested on: SF-295 CNS
[32] = tested on: OVCAR-4 ovarian
[33] = tested on: HT29 colon
[34] = tested on: MDA-MB-468 breast
[35] = tested on: M14 melanoma
[36] = tested on: UACC-257 melanoma
[37] = tested on: CAKI-1 renal
[38] = tested on: SF-539 CNS
[39] = tested on: HCC-2998 colon
[40] = tested on: ACHN renal
[41] = tested on: NCI-H522 lung
[42] = tested on: TK-10 renal
[43] = tested on: A498 renal
[44] = tested on: A549 NSCLC
[45] = tested on: RXF 393 renal
[46] = tested on: NCI-H226 lung
[47] = tested on: SK-MEL-5 melanoma
[48] = tested on: MDA-MB-435 melanoma
[49] = tested on: HCT-15 colon
[50] = tested on: NCI-H322M lung
[51] = tested on: KM12 colon
[52] = tested on: MOLT-4 leukemia
[53] = tested on: OVCAR-3 ovarian
[54] = tested on: HOP-62 NSCLC
[55] = tested on: HOP-92 NSCLC
[56] = tested on: SNB-75 CNS

## C[C@]1(c2nc3c(C(N)=O)cccc3[nH]2)CCCN1
[1]
  GI50: > 100 µM
  TGI: > 100 µM
[2]
  GI50: 72.9 µM
  TGI: > 100 µM
[3]
  GI50: > 100 µM
  TGI: > 100 µM
[4]
  GI50: > 100 µM
  TGI: > 100 µM
[5]
  GI50: > 100 µM
  TGI: > 100 µM
[6]
  GI50: > 100 µM
  TGI: > 100 µM
[7]
  GI50: > 100 µM
  TGI: > 100 µM
[8]
  GI50: > 100 µM
  TGI: > 100 µM
[9]
  GI50: > 100 µM
  TGI: > 100 µM
[10]
  GI50: > 100 µM
  TGI: > 100 µM
[11]
  GI50: > 100 µM
  TGI: > 100 µM
[12]
  GI50: > 100 µM
  TGI: > 100 µM
[13]
  GI50: 14.5 µM
  TGI: 28.3 µM
[14]
  GI50: 85.2 µM
  TGI: > 100 µM
[15]
  GI50: 84.4 µM
  TGI: > 100 µM
[16]
  GI50: > 100 µM
  TGI: > 100 µM
[17]
  GI50: > 100 µM
  TGI: > 100 µM
[18]
  GI50: 28.7 µM
  TGI: > 100 µM
[19]
  GI50: > 100 µM
  TGI: > 100 µM
[20]
  GI50: > 100 µM
  TGI: > 100 µM
[21]
  GI50: > 100 µM
  TGI: > 100 µM
[22]
  GI50: > 100 µM
  TGI: > 100 µM
[23]
  GI50: 78.7 µM
  TGI: > 100 µM
[24]
  GI50: > 100 µM
  TGI: > 100 µM
[25]
  GI50: > 100 µM
  TGI: > 100 µM
[26]
  GI50: > 100 µM
  TGI: > 100 µM
[27]
  GI50: 95.6 µM
  TGI: > 100 µM
[28]
  GI50: > 100 µM
  TGI: > 100 µM
[29]
  GI50: > 100 µM
  TGI: > 100 µM
[30]
  GI50: > 100 µM
  TGI: > 100 µM
[31]
  GI50: 38.9 µM
  TGI: > 100 µM
[32]
  GI50: > 100 µM
  TGI: > 100 µM
[33]
  GI50: > 100 µM
  TGI: > 100 µM
[34]
  GI50: 16.2 µM
  TGI: > 100 µM
[35]
  GI50: > 100 µM
  TGI: > 100 µM
[36]
  GI50: > 100 µM
  TGI: > 100 µM
[37]
  GI50: > 100 µM
  TGI: > 100 µM
[38]
  GI50: > 100 µM
  TGI: > 100 µM
[39]
  GI50: 26.6 µM
  TGI: > 100 µM
[40]
  GI50: > 100 µM
  TGI: > 100 µM
[41]
  GI50: > 100 µM
  TGI: > 100 µM
[42]
  GI50: > 100 µM
  TGI: > 100 µM
[43]
  GI50: > 100 µM
  TGI: > 100 µM
[44]
  GI50: > 100 µM
  TGI: > 100 µM
[45]
  GI50: > 100 µM
  TGI: > 100 µM
[46]
  GI50: 90.3 µM
  TGI: > 100 µM
[47]
  GI50: > 100 µM
  TGI: > 100 µM
[48]
  GI50: > 100 µM
  TGI: > 100 µM
[49]
  GI50: > 100 µM
  TGI: > 100 µM
[50]
  GI50: > 100 µM
  TGI: > 100 µM
[51]
  GI50: > 100 µM
  TGI: > 100 µM
[52]
  GI50: 29.6 µM
  TGI: > 100 µM
[53]
  GI50: > 100 µM
  TGI: > 100 µM
[54]
  GI50: 40.7 µM
  TGI: > 100 µM
[55]
  GI50: > 100 µM
  TGI: > 100 µM

## NC(=O)c1ccc(I)c([N+](=O)[O-])c1
[1]
  GI50: 21.4 µM
  TGI: 45.3 µM
[2]
  GI50: > 100 µM
  TGI: > 100 µM
[3]
  GI50: 44.3 µM
  TGI: > 100 µM
[4]
  GI50: 53.1 µM
  TGI: > 100 µM
[5]
  GI50: > 100 µM
  TGI: > 100 µM
[6]
  GI50: 18 µM
  TGI: 32.1 µM
[7]
  GI50: 19.4 µM
  TGI: 35.2 µM
[8]
  GI50: 40.6 µM
  TGI: > 100 µM
[9]
  GI50: > 100 µM
  TGI: > 100 µM
[10]
  GI50: 26.8 µM
  TGI: 72.8 µM
[11]
  GI50: > 100 µM
  TGI: > 100 µM
[12]
  GI50: > 100 µM
  TGI: > 100 µM
[13]
  GI50: 25 µM
  TGI: 57.3 µM
[14]
  GI50: 62.7 µM
  TGI: > 100 µM
[15]
  GI50: 21 µM
  TGI: 39.9 µM
[16]
  GI50: 33 µM
  TGI: 78.9 µM
[17]
  GI50: > 100 µM
  TGI: > 100 µM
[18]
  GI50: 78.5 µM
  TGI: > 100 µM
[19]
  GI50: 21 µM
  TGI: 38.1 µM
[20]
  GI50: 68.7 µM
  TGI: > 100 µM
[21]
  GI50: 70.2 µM
  TGI: > 100 µM
[22]
  GI50: > 100 µM
  TGI: > 100 µM
[23]
  GI50: 24.3 µM
  TGI: 52.5 µM
[24]
  GI50: 97.7 µM
  TGI: > 100 µM
[25]
  GI50: > 100 µM
  TGI: > 100 µM
[26]
  GI50: 32.4 µM
  TGI: > 100 µM
[56]
  GI50: 21.4 µM
  TGI: > 100 µM
[27]
  GI50: 39 µM
  TGI: > 100 µM
[28]
  GI50: > 100 µM
  TGI: > 100 µM
[29]
  GI50: 71.1 µM
  TGI: > 100 µM
[30]
  GI50: > 100 µM
  TGI: > 100 µM
[31]
  GI50: > 100 µM
  TGI: > 100 µM
[32]
  GI50: 17.9 µM
  TGI: 31.9 µM
[33]
  GI50: 44 µM
  TGI: > 100 µM
[34]
  GI50: 10 µM
  TGI: 23.3 µM
[35]
  GI50: 31 µM
  TGI: > 100 µM
[36]
  GI50: 39.8 µM
  TGI: > 100 µM
[37]
  GI50: 20.6 µM
  TGI: 36.1 µM
[38]
  GI50: > 100 µM
  TGI: > 100 µM
[39]
  GI50: 28.2 µM
  TGI: 56.2 µM
[40]
  GI50: > 100 µM
  TGI: > 100 µM
[41]
  GI50: 15.4 µM
  TGI: 30.1 µM
[42]
  GI50: > 100 µM
  TGI: > 100 µM
[43]
  GI50: 91.6 µM
  TGI: > 100 µM
[44]
  GI50: > 100 µM
  TGI: > 100 µM
[45]
  GI50: 21.4 µM
  TGI: 36.3 µM
[46]
  GI50: 53.4 µM
  TGI: > 100 µM
[47]
  GI50: 25.2 µM
  TGI: 89.3 µM
[48]
  GI50: > 100 µM
  TGI: > 100 µM
[49]
  GI50: 44.1 µM
  TGI: > 100 µM
[50]
  GI50: 33 µM
  TGI: 95.7 µM
[51]
  GI50: 57.4 µM
  TGI: > 100 µM
[52]
  GI50: 20.5 µM
  TGI: 38.8 µM
[53]
  GI50: 23.6 µM
  TGI: 58.4 µM
[54]
  GI50: 17.9 µM
  TGI: 36.7 µM
[55]
  GI50: 21.7 µM
  TGI: 42.8 µM
